# Results taken from ChEMBL document CHEMBL1143475, “Investigation of factor Xa inhibitors containing non-amidine S1 elements” (Bioorg Med Chem Lett, 2005).
# Target: Plasminogen (Homo sapiens) (UniProt P00747)
# Test: Binding affinity as apparent association constant for Plasmin
# Sequence of Plasminogen (Homo sapiens) (P00747 97-580 limits assumed): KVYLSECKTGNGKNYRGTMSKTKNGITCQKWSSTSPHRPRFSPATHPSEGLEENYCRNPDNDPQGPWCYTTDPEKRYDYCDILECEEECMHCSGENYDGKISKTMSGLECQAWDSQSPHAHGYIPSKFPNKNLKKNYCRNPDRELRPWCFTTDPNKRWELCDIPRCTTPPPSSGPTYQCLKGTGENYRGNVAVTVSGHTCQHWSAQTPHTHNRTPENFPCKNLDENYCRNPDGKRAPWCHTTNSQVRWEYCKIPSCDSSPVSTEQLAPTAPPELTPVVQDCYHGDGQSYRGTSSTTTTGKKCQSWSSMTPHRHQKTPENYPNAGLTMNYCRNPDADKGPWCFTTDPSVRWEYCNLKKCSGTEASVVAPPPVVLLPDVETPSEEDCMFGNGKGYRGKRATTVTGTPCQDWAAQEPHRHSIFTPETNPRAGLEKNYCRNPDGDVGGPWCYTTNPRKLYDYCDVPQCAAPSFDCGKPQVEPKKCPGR
# Sequence of Plasminogen (Homo sapiens) (P00747 581-810 limits assumed): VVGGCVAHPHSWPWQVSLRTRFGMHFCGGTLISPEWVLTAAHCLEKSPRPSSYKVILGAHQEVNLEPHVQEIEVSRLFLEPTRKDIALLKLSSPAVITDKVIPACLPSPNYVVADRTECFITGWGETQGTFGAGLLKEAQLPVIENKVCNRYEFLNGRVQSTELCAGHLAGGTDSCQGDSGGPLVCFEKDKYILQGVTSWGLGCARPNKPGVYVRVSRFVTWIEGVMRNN
row,Ka [L/mol],SMILES
1,< 10000,O=C(Nc1ccccc1NC(=O)c1ccc(Cl)cc1)OCC1CCN(c2ccncc2)CC1

# Target: Serine protease 1 (Homo sapiens) (UniProt P07477)
# Test: Binding affinity as apparent association constant for Trypsin
# Sequence of Serine protease 1 (Homo sapiens) (P07477 whole entry): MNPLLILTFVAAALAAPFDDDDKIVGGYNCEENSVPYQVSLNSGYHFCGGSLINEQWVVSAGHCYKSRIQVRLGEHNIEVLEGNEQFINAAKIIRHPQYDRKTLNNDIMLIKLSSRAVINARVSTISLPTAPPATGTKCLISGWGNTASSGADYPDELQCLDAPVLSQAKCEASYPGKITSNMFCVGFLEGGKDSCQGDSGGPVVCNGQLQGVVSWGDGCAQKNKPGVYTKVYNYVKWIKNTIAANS
row,Ka [L/mol],SMILES
1,< 10000,O=C(Nc1ccccc1NC(=O)c1ccc(Cl)cc1)OCC1CCN(c2ccncc2)CC1

# Target: Urokinase-type plasminogen activator (Homo sapiens) (UniProt P00749)
# Test: Binding affinity as apparent association constant for Urokinase
row,Ka [L/mol],SMILES
1,< 10000,O=C(Nc1ccccc1NC(=O)c1ccc(Cl)cc1)OCC1CCN(c2ccncc2)CC1

# Target: Prothrombin (Homo sapiens) (UniProt P00734)
# Test: Binding affinity as apparent association constant for Coagulation factor II
row,Ka [L/mol],SMILES
1,20000,O=C(Nc1ccccc1NC(=O)c1ccc(Cl)cc1)OCC1CCN(c2ccncc2)CC1

# Target: Tissue-type plasminogen activator (Homo sapiens) (UniProt P00750)
# Sequence (P00750 36-562 limits assumed): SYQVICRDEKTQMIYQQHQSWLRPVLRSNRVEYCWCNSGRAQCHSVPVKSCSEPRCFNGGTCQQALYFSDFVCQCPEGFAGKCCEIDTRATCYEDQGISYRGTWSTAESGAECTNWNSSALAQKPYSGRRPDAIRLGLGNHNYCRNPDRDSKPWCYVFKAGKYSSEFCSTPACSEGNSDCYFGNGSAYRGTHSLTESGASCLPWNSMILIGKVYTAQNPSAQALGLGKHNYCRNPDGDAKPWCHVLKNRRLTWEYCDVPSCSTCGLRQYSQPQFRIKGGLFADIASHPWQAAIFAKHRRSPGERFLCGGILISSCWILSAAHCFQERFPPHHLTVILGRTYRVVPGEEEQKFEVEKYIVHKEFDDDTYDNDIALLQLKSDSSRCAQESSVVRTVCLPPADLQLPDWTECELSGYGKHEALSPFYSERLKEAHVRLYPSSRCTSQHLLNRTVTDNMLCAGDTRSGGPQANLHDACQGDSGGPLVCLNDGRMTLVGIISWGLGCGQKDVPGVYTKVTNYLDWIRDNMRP
# Test: Binding affinity as apparent association constant for Tissue plasminogen activator
row,Ka [L/mol],SMILES
1,< 10000,O=C(Nc1ccccc1NC(=O)c1ccc(Cl)cc1)OCC1CCN(c2ccncc2)CC1

# Target: Thrombin and coagulation factor X (Homo sapiens) (UniProt P00734+P00742)
# Sequence (P00742 whole entry, looked up, other chains not shown): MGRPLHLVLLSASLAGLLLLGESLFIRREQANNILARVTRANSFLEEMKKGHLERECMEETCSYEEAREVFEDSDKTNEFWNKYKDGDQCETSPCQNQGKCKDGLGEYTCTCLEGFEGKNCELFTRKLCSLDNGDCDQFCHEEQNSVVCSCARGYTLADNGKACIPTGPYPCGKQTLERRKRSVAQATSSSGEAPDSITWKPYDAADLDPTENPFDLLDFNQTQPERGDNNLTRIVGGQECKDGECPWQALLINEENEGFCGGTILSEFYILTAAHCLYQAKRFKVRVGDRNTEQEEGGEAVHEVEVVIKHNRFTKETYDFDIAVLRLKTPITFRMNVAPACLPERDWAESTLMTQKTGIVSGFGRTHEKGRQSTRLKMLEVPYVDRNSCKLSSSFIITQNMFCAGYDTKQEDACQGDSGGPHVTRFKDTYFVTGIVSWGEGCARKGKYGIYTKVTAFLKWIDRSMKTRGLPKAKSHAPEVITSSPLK
# Test: Anticoagulant potency against double prothrombin time
# Type: functional
row,SMILES,PT [µM]
1,O=C(Nc1ccccc1NC(=O)c1ccc(I)cc1)OCC1CCN(c2ccncc2)CC1,6
2,COc1ccc(C(=O)Nc2ccccc2NC(=O)c2ccc(C(C)(C)C)cc2)cc1,> 50
3,COc1ccc(C(=O)Nc2ccccc2NC(=O)OCC2CCN(c3ccncc3)CC2)cc1,1.9
4,O=C(Nc1ccccc1NC(=O)c1ccc(OC(F)F)cc1)OCC1CCN(c2ccncc2)CC1,6
5,O=C(Nc1ccccc1NC(=O)c1ccc(Cl)s1)OCC1CCN(c2ccncc2)CC1,2.6
6,CC(C)(C)c1ccc(C(=O)Nc2ccccc2NC(=O)c2cccc(C(=N)N)c2)cc1,0.9
7,COc1ccc(C(=O)Nc2ccccc2NC(=O)C2CCN(c3ccncc3)CC2)cc1,9.7
8,O=C(Nc1ccccc1NC(=O)c1ccc2cc[nH]c2c1)OCC1CCN(c2ccncc2)CC1,1.6
9,COc1ccc(C(=O)Nc2ccccc2NC(=O)OCC2CCN(c3ccncc3)CC2)cc1F,1.1

# Continued, values first:
row,PT [µM],SMILES
1,5,O=C(Nc1ccccc1NC(=O)c1cccc(Cl)c1Cl)OCC1CCN(c2ccncc2)CC1
2,1.9,O=C(Nc1ccccc1NC(=O)c1ccc(Cl)cc1)OCC1CCN(c2ccncc2)CC1
3,7,Cc1ccc(C(=O)Nc2ccccc2NC(=O)OCC2CCN(c3ccncc3)CC2)cc1F
4,12,O=C(Nc1ccccc1NC(=O)c1cccc(Cl)c1)OCC1CCN(c2ccncc2)CC1
5,10,COc1cccc(C(=O)Nc2ccccc2NC(=O)OCC2CCN(c3ccncc3)CC2)c1
6,8,Nc1cccc(C(=O)Nc2ccccc2NC(=O)OCC2CCN(c3ccncc3)CC2)c1
7,22,Cc1ccc(C(=O)Nc2ccccc2NC(=O)OCC2CCN(c3ccncc3)CC2)cc1Cl
8,8,Cc1ccc(C(=O)Nc2ccccc2NC(=O)OCC2CCN(c3ccncc3)CC2)cc1
9,1.8,O=C(Nc1ccccc1NC(=O)c1ccc(Br)cc1)OCC1CCN(c2ccncc2)CC1
10,17,O=C(Nc1ccccc1NC(=O)c1cccc(F)c1)OCC1CCN(c2ccncc2)CC1

# Target: Coagulation factor X (Homo sapiens) (UniProt P00742)
# Sequence (P00742 41-179 limits assumed): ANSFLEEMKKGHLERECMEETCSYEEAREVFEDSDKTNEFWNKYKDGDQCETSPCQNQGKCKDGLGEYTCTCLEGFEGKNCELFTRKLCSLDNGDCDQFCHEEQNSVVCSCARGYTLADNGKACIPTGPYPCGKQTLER
# Sequence (P00742 235-488 limits assumed): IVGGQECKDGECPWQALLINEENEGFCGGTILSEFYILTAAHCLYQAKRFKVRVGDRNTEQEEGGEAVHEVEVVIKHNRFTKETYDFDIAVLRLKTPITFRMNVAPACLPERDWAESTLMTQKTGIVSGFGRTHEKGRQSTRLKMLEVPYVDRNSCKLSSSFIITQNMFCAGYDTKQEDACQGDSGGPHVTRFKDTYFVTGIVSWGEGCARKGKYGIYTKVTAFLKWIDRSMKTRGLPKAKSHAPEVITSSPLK
# Test: Binding affinity as apparent association constant for human coagulation factor X
row,SMILES,K ass [L/mol]
1,O=C(Nc1ccccc1NC(=O)c1ccc(I)cc1)OCC1CCN(c2ccncc2)CC1,1.4e+07
2,O=C(Nc1ccccc1NC(=O)C1=CCCCC1)OCC1CCN(c2ccncc2)CC1,900000
3,O=C(Nc1ccccc1NC(=O)c1ccc(Cl)o1)OCC1CCN(c2ccncc2)CC1,700000
4,COc1ccccc1C(=O)Nc1ccccc1NC(=O)OCC1CCN(c2ccncc2)CC1,20000
5,COc1ccc(C(=O)Nc2ccccc2NC(=O)c2ccc(C(C)(C)C)cc2)cc1,7e+06
6,COc1ccc(C(=O)Nc2ccccc2NC(=O)OCC2CCN(c3ccncc3)CC2)cc1,1.9e+07
7,O=C(Nc1ccccc1NC(=O)c1ccc(OC(F)F)cc1)OCC1CCN(c2ccncc2)CC1,5e+06
8,N#Cc1ccc(C(=O)Nc2ccccc2NC(=O)OCC2CCN(c3ccncc3)CC2)cc1,600000
9,O=C(Nc1ccccc1NC(=O)c1ccc2c(c1)CCO2)OCC1CCN(c2ccncc2)CC1,600000
10,O=C(Nc1ccccc1NC(=O)c1ccc(Cl)s1)OCC1CCN(c2ccncc2)CC1,3.3e+07
11,O=C(Nc1ccccc1NC(=O)C1=CCCC1)OCC1CCN(c2ccncc2)CC1,700000
12,CC(C)(C)c1ccc(C(=O)Nc2ccccc2NC(=O)c2cccc(C(=N)N)c2)cc1,2.42e+08
13,O=C(Nc1ccccc1NC(=O)C1C=CCCC1)OCC1CCN(c2ccncc2)CC1 (stereo unspecified),200000
14,COc1ccc(C(=O)Nc2ccccc2NC(=O)C2CCN(c3ccncc3)CC2)cc1,2e+06
15,O=C(Nc1ccccc1NC(=O)c1ccc2cc[nH]c2c1)OCC1CCN(c2ccncc2)CC1,5.4e+07
16,O=C(Nc1ccccc1NC(=O)C1CCCCC1)OCC1CCN(c2ccncc2)CC1,40000
17,COc1ccc(C(=O)Nc2ccccc2NC(=O)OCC2CCN(c3ccncc3)CC2)cc1F,46

# The next lines start with the values.
row,K ass [L/mol],SMILES
1,1e+06,O=C(Nc1ccccc1NC(=O)c1cccc(O)c1)OCC1CCN(c2ccncc2)CC1
2,1.9e+07,O=C(Nc1ccccc1NC(=O)c1cccc(Cl)c1Cl)OCC1CCN(c2ccncc2)CC1
3,3.5e+07,O=C(Nc1ccccc1NC(=O)c1ccc(Cl)cc1)OCC1CCN(c2ccncc2)CC1
4,5.8e+06,Cc1ccc(C(=O)Nc2ccccc2NC(=O)OCC2CCN(c3ccncc3)CC2)cc1F
5,4.1e+06,O=C(Nc1ccccc1NC(=O)c1cccc(Cl)c1)OCC1CCN(c2ccncc2)CC1
6,3.3e+06,COc1cccc(C(=O)Nc2ccccc2NC(=O)OCC2CCN(c3ccncc3)CC2)c1
7,5.1e+06,Nc1cccc(C(=O)Nc2ccccc2NC(=O)OCC2CCN(c3ccncc3)CC2)c1
8,300000,O=C(Nc1ccccc1NC(=O)c1ccccc1Cl)OCC1CCN(c2ccncc2)CC1
9,2.3e+06,Cc1ccc(C(=O)Nc2ccccc2NC(=O)OCC2CCN(c3ccncc3)CC2)cc1Cl
10,1.6e+06,O=C(Nc1ccccc1NC(=O)c1ccccc1)OCC1CCN(c2ccncc2)CC1
11,5.9e+06,Cc1cccc(C(=O)Nc2ccccc2NC(=O)OCC2CCN(c3ccncc3)CC2)c1
12,4.6e+06,O=C(Nc1ccccc1NC(=O)c1ccc(F)cc1)OCC1CCN(c2ccncc2)CC1
13,6.3e+06,Cc1ccc(C(=O)Nc2ccccc2NC(=O)OCC2CCN(c3ccncc3)CC2)cc1
14,3.8e+07,O=C(Nc1ccccc1NC(=O)c1ccc(Br)cc1)OCC1CCN(c2ccncc2)CC1
15,2.5e+06,O=C(Nc1ccccc1NC(=O)c1cccc(F)c1)OCC1CCN(c2ccncc2)CC1
